According to BindingDB's records for doi:10.1016/s0960-894x(99)00197-3 (The R. W. Johnson Pharmaceutical Research Institute, 1999):

Experiment: Activation of human platelet aggregation (gel-filtered platelets) induced by alpha thrombin

| EC50 | Compound |
| --- | --- |
| 2.4 µM | N=C(N)NCCC[C@H](NC(=O)[C@H](CC1CCCCC1)NC(=O)c1nnc(NC(=O)C=Cc2cccc(Cl)c2)[nH]1)C(=O)N[C@@H](Cc1ccccc1)C(N)=O [5-[(E)-3-(3-Chloro-phenyl)-acryloylamino]-1H-[1,2,4]triazole-3-carboxylic acid {(S)-1-[(S)-1-((S)-1-carbamoyl-2-phenyl-ethylcarbamoyl)-4-guanidino-butylcarbamoyl]-2-cyclohexyl-ethyl}-amide] |
| 4.9 µM | N=C(N)NCCC[C@H](NC(=O)[C@H](Cc1ccccc1)NC(=O)c1ccc2nc[nH]c2c1)C(=O)N[C@@H](Cc1ccccc1)C(N)=O [1H-Benzoimidazole-5-carboxylic acid {(S)-1-[(S)-1-((S)-1-carbamoyl-2-phenyl-ethylcarbamoyl)-4-guanidino-butylcarbamoyl]-2-phenyl-ethyl}-amide] |
| 0.76 µM | N=C(N)NCCC[C@H](NC(=O)[C@H](CC1CCCCC1)NC(=O)c1nnc(N)[nH]1)C(=O)N[C@@H](Cc1ccccc1)C(N)=O [5-Amino-1H-[1,2,4]triazole-3-carboxylic acid {(S)-1-[(S)-1-((S)-1-carbamoyl-2-phenyl-ethylcarbamoyl)-4-guanidino-butylcarbamoyl]-2-cyclohexyl-ethyl}-amide] |
| 4.2 µM | N=C(N)NCCC[C@H](NC(=O)[C@H](CC1CCCCC1)NC(=O)c1nccnc1N)C(=O)N[C@@H](Cc1ccccc1)C(N)=O [3-Amino-pyrazine-2-carboxylic acid {(S)-1-[(S)-1-((S)-1-carbamoyl-2-phenyl-ethylcarbamoyl)-4-guanidino-butylcarbamoyl]-2-cyclohexyl-ethyl}-amide] |
